Reference: ChEMBL document CHEMBL5120794, “Development of 5-hydroxyl-1-azabenzanthrone derivatives as dual binding site and selective acetylcholinesterase inhibitors” (Eur J Med Chem, 2022)
Activity calls are given as the source filed them. No cut-off for these calls is given here.

Tests used:
Mus musculus [1] = experiment: Antialzheimer activity in scopolamine-induced cognitive impairment ICR mouse model assessed as improvement of exploration ability at 2.5 to 10 mg/kg, ip administered for 14 consecutive days followed by scopolmaine-stimulation measured on day 21 by Y maze test; type: functional; settings: dose 2.5-10 mg/kg, time 21 day
PC-12 [2] = experiment: Induction of apoptosis in rat PC-12 cells assessed as late apoptotic cells at 0.1 uM preincubated for 4 hrs followed by H2O2 treatment for another 24 hrs by Annexin V and PI double staining based flow cytometric analysis (RVB = 5.46 %); type: functional; settings: time 28 hrs
PC-12 [3] = experiment: Cytoprotective activity against H2O2-induced oxidative damage in rat PC-12 cells assessed as cell viability at 1 uM preincubated for 4 hrs followed by H2O2 treatment for another 24 hrs by MTT assay; type: functional, cell-based; settings: time 28.0 hrs
PC-12 [4] = experiment: Induction of apoptosis in rat PC-12 cells assessed as necrotic cells at 0.5 uM preincubated for 4 hrs followed by H2O2 treatment for another 24 hrs by Annexin V and PI double staining based flow cytometric analysis (RVB = 2.94 %); type: functional; settings: time 28 hrs
[5] = Toxicity in sopolamine-induced cognitive impairment ICR mouse model assessed as morphological change in heart at 10 mg/kg, ip administered for 14 consecutive days followed by scopolmaine-stimulation measured on day 21 by H and E staining method; type: organism-based; settings: in vivo, 504 h, time 21 day
Mus musculus [6] = experiment: Antialzheimer activity in ICR mouse assessed as reduction in scopolamine-induced cognitive impairment at 2.5 to 10 mg/kg, ip administered for 14 consecutive days followed by scopolmaine-stimulation measured on day 21 by Morris water maze test; type: functional, organism-based; settings: dose 2.5-10 mg/kg, time 21.0 day, DDE = dose-dependent effect
PC-12 [7] = experiment: Induction of apoptosis in rat PC-12 cells assessed as necrotic cells at 0.3 uM preincubated for 4 hrs followed by H2O2 treatment for another 24 hrs by Annexin V and PI double staining based flow cytometric analysis (RVB = 2.94 %); type: functional; settings: time 28 hrs
[8] = Cmax in Sprague-Dawley rat plasma at 2 mg/kg, iv measured at 10 to 1440 mins by LC-MS/MS analysis; type: ADME, organism-based; set-up: time lower 10 min, dose 2 mg/kg, time upper 1440 min, route iv
Acetylcholinesterase = Acetylcholinesterase (Electrophorus electricus, UniProt O42275); experiment: Inhibition of Electrophorus electricus AchE using […] as substrate incubated for 10 mins followed by substrate addition measured at 0 to 180 secs by Ellman's method
Acetylcholinesterase, sequence (O42275 whole entry): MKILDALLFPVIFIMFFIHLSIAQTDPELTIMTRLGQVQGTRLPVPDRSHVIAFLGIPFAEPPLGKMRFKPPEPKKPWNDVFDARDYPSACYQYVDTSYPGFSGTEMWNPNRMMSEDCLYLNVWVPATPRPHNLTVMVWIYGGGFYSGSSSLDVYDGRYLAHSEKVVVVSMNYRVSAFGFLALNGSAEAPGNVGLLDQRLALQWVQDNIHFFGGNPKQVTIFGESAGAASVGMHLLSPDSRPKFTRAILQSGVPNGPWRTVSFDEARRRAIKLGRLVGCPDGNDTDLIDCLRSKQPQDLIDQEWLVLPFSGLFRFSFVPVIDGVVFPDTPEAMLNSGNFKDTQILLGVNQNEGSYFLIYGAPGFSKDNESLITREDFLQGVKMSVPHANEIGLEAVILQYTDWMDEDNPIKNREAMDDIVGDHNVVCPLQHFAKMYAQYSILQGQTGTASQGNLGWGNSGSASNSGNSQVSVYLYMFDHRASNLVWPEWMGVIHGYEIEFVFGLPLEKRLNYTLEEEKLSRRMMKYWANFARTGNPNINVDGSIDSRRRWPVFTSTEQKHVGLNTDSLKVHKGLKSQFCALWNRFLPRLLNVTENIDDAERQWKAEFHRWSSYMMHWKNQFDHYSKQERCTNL

Cholinesterase = Cholinesterase (Equus caballus, UniProt P81908)
Cholinesterase, sequence (P81908 whole entry): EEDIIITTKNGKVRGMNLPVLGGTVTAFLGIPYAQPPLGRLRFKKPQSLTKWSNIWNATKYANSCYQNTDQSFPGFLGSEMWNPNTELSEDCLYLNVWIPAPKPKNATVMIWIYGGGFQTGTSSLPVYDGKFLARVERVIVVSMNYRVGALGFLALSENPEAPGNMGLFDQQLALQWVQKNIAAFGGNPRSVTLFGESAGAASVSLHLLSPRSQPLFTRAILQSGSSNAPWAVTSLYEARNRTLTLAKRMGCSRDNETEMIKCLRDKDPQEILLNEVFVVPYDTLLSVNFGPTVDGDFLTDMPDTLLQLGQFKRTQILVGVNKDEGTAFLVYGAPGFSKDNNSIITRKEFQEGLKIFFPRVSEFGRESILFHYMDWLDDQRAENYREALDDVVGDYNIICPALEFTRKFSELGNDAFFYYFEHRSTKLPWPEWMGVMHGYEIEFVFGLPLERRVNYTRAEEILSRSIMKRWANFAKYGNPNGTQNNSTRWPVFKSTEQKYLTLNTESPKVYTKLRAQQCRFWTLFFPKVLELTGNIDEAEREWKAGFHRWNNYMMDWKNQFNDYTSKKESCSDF
Description: Inhibition of equine serum BchE using S-butyryl thiocholine iodide as substrate incubated for 10 mins followed by substrate addition measured at 0 to 180 secs by Ellman's method

[9] = Bioavailability in Sprague-Dawley rat plasma at 10 mg/kg, IG measured at 10 to 1440 mins by LC-MS/MS analysis; type: ADME, organism-based; settings: po, time 10-1440 min
[10] = MRT infinity in Sprague-Dawley rat plasma at 2 mg/kg, iv measured at 10 to 1440 mins by LC-MS/MS analysis; type: ADME, organism-based; settings: time 10-1440 min
PC-12 [11] = experiment: Inhibition of ROS production in rat PC-12 cells assessed as intracellular ROS level at 0.1 to 0.5 uM preincubated for 4 hrs followed by H2O2 treatment for another 24 hrs by flow cytometric analysis (RVB = 1.58); type: functional; settings: dose 0.1-0.5 µM; time 28 hrs
PC-12 [12] = experiment: Induction of apoptosis in rat PC-12 cells assessed as early apoptotic cells at 0.3 uM preincubated for 4 hrs followed by H2O2 treatment for another 24 hrs by Annexin V and PI double staining based flow cytometric analysis (RVB = 4.52 %); type: functional; settings: time 28 hrs
[13] = Toxicity in sopolamine-induced cognitive impairment ICR mouse model assessed as morphological change in spleen at 10 mg/kg, ip administered for 14 consecutive days followed by scopolmaine-stimulation measured on day 21 by H and E staining method; type: organism-based; settings: in vivo, 504 h, time 21 day
PC-12 [14] = experiment: Induction of apoptosis in rat PC-12 cells assessed as viable cells at 0.5 uM preincubated for 4 hrs followed by H2O2 treatment for another 24 hrs by Annexin V and PI double staining based flow cytometric analysis (RVB = 87.1 %); type: functional; settings: time 28 hrs, read-out: Activity
[15] = Half life in Sprague-Dawley rat plasma at 2 mg/kg, iv measured at 10 to 1440 mins by LC-MS/MS analysis; type: ADME, organism-based; settings: time 10-1440 min
[16] = Cmax in Sprague-Dawley rat plasma at 10 mg/kg, IG measured at 10 to 1440 mins by LC-MS/MS analysis; type: ADME, organism-based; set-up: dose 10 mg/kg, time 10-1440 min, route ig; settings: po
[17] = Tmax in Sprague-Dawley rat plasma at 10 mg/kg, IG measured at 10 to 1440 mins by LC-MS/MS analysis; type: ADME, organism-based; settings: po, time 10-1440 min
[18] = MRT infinity in Sprague-Dawley rat plasma at 10 mg/kg, IG measured at 10 to 1440 mins by LC-MS/MS analysis; type: ADME, organism-based; settings: po, time 10-1440 min
[19] = Clearance in Sprague-Dawley rat plasma at 10 mg/kg, IG measured at 10 to 1440 mins by LC-MS/MS analysis; type: ADME, organism-based; settings: po, time 10-1440 min
[20] = Tmax in Sprague-Dawley rat plasma at 2 mg/kg, iv measured at 10 to 1440 mins by LC-MS/MS analysis; type: ADME, organism-based; settings: time 10-1440 min
[21] = AUC (0 to 24 hrs) in Sprague-Dawley rat plasma at 10 mg/kg, IG measured at 10 to 1440 mins by LC-MS/MS analysis; type: ADME, organism-based; set-up: dose 10 mg/kg, time 10-1440 min, route ig; settings: po
PC-12 [22] = experiment: Induction of apoptosis in rat PC-12 cells assessed as viable cells at 0.1 uM preincubated for 4 hrs followed by H2O2 treatment for another 24 hrs by Annexin V and PI double staining based flow cytometric analysis (RVB = 87.1 %); type: functional; settings: time 28 hrs, read-out: Activity
[23] = Toxicity in sopolamine-induced cognitive impairment ICR mouse model assessed as morphological change in lung at 10 mg/kg, ip administered for 14 consecutive days followed by scopolmaine-stimulation measured on day 21 by H and E staining method; type: organism-based; settings: in vivo, 504 h, time 21 day
PC-12 [24] = experiment: Induction of apoptosis in rat PC-12 cells assessed as early apoptotic cells at 0.1 uM preincubated for 4 hrs followed by H2O2 treatment for another 24 hrs by Annexin V and PI double staining based flow cytometric analysis (RVB = 4.52 %); type: functional; settings: time 28 hrs
PC-12 [25] = experiment: Antioxidant activity in H2O2-induced oxidative stress in rat PC-12 cells assessed as increase in expression of Nrf2 level preincubated for 4 hrs followed by H2O2 treatment for another 24 hrs by Western blotting analysis; type: functional, cell-based; settings: dose 0.5-3 µM, time 28.0 hrs, DDE = dose-dependent effect
[26] = Toxicity in sopolamine-induced cognitive impairment ICR mouse model assessed as morphological change in renal at 10 mg/kg, ip administered for 14 consecutive days followed by scopolmaine-stimulation measured on day 21 by H and E staining method; type: organism-based; settings: in vivo, 504 h, time 21 day
[27] = Toxicity in sopolamine-induced cognitive impairment ICR mouse model assessed as diarrhea at 10 mg/kg, ip administered for 14 consecutive days followed by scopolmaine-stimulation measured on day 21; type: organism-based; settings: in vivo, 504 h, time 21 day
[28] = Toxicity in sopolamine-induced cognitive impairment ICR mouse model assessed as swimming motility impairment at 10 mg/kg, ip administered for 14 consecutive days followed by scopolmaine-stimulation measured on day 21; type: organism-based; settings: in vivo, 504 h, time 21 day
[29] = target: Amyloid-beta precursor protein (Homo sapiens) (UniProt P05067); experiment: Inhibition of amyloid beta (1 to 42) (unknown origin) self-induced aggregation at 25 uM measured after 46 to 48 hrs by Thioflavin binding assay relative to control; settings: time 46-48 hrs
Amyloid-beta precursor protein (Homo sapiens), sequence (P05067 whole entry): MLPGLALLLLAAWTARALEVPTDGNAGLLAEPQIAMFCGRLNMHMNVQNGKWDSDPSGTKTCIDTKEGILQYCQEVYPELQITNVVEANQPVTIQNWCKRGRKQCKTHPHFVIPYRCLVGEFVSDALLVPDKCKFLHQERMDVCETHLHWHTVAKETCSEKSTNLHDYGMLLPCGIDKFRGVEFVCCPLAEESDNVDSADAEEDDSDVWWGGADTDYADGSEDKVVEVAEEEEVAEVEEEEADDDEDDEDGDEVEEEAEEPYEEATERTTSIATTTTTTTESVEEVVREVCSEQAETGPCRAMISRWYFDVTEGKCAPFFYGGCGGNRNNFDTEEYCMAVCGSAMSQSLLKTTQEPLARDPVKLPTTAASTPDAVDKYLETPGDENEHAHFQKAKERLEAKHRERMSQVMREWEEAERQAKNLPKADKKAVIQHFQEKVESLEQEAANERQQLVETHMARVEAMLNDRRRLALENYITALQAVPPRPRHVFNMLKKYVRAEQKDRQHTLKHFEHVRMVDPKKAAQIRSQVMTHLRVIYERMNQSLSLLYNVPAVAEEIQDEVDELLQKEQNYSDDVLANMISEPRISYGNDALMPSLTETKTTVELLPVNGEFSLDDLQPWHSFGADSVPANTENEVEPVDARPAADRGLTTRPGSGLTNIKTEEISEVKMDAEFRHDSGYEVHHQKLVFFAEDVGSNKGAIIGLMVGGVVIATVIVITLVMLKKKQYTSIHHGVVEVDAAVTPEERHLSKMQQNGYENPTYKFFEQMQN

In the case of `CC1CCCCN1CCCOc1cc2c3c(nccc3c1)-c1ccccc1C2=O` (stereo unspecified), the Activity (Mus musculus [1]) is reported as 45.98%, the Activity (PC-12 [2]) is reported as 8.98% and the Activity (PC-12 [3]) is reported as “Active”. For the same molecule, the Activity (PC-12 [4]) was 2.96%, the Activity [5] was “Non-Toxic” and the Activity (Mus musculus [6]) was “Dde”. For the same molecule, the Activity (PC-12 [7]) was 2.99%, the Cmax [8] was 103 ng/mL and the IC50 (Acetylcholinesterase) was 0.045 µM. For the same molecule, the IC50 (Cholinesterase) was 19.7 µM, the bioavailability [9] was 55.5% and the MRT inf [10] was 2.79 h. The Activity (PC-12 [11]) was 1.1, the Activity (PC-12 [12]) was 3.99% and the Activity [13] was “Non-Toxic”. For the same molecule, the viability at 0.5 µM (PC-12 [14]) was 88.5%, the half-life [15] was 3.73 h and the Cmax [16] was 68.5 ng/mL. For the same molecule, the Tmax [17] was 3.33 h, the MRT inf [18] was 6.48 h and the CL/F [19] was 208 mL/min/kg. For the same molecule, the Tmax [20] was 4.98 min, the AUC(0-t) [21] was 704 ng·h/mL and the viability at 0.1 µM (PC-12 [22]) was 79.7%. For the same molecule, the Activity [23] was “Non-Toxic”, the Activity (PC-12 [24]) was 6.76% and the Activity (PC-12 [25]) was “Dde”. The Activity [26] was “Non-Toxic”, the Activity [27] was “Non-Toxic” and the Activity [28] was “Non-Toxic”. It also gave an inhibition [29] of 35.3%.
